What was measured:
Conditions in all cases: main component drawn
[1] = system: B. subtilis 168; assay: fitness (endpoint OD595 vs no drug) (fraction); higher = more growth
How it was run: (§1)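 Fitness was defined as the optical density at the transition into stationary phase relative to the robust mean of no-drug control wells. Values were capped at 1. Cultures were started at OD595 0.01 in 384-well plates (30 µl, or 55 µl for S. pneumoniae) in TSB, LB Lennox or CY at 37 °C. OD595 was recorded every 30 min over 14 h, with the first reading subtracted as background.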

[2] = system: S. aureus Newman; assay: as above
How it was run: as §1

[3] = system: B. subtilis 168; assay: Bliss interaction score (quartile over a dose matrix) (fitness difference); higher = more antagonism (negative = synergy)
How it was run: (§2)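 At entry into stationary phase, OD595 was recorded and divided by the robust mean of the no-drug wells on that plate, with any value above 1 set to 1. This gives the fitness measure used throughout. Single-drug fitness was inferred from combination data, and the Bliss score, observed minus product-expected fitness, is shown as quartiles across technical, biological and donor/recipient replicates.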

[4] = system: S. pneumoniae D39V; assay: as above
How it was run: as §2

[5] = system: S. aureus Newman; assay: as above
How it was run: as §2

[6] = system: S. aureus DSM 20231; assay: as above
How it was run: as §2
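Wherever Bliss interaction score (quartile over a dose matrix) is given: first quartile when negative (synergy) and third quartile when positive (antagonism).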

CC[C@H](C)[C@H](N)C1=N[C@H](C(=O)N[C@@H](CC(C)C)C(=O)N[C@H](CCC(=O)O)C(=O)N[C@H](C(=O)N[C@H]2CCCCNC(=O)[C@H](CC(N)=O)NC(=O)[C@@H](CC(=O)O)NC(=O)[C@H](Cc3cnc[nH]3)NC(=O)[C@@H](Cc3ccccc3)NC(=O)[C@H]([C@@H](C)CC)NC(=O)[C@@H](CCCN)NC2=O)[C@@H](C)CC)CS1 [Bacitracin] + CCN(CC)CCOC(=O)c1ccc(N)cc1 [Procaine]
fitness
Conditions	partner 85.5 µg/mL	partner 171 µg/mL	partner 342 µg/mL
[1], first compound 37.5 µg/mL	0.88	0.939	0.874
[1], first compound 75 µg/mL	0.899	0.879	0.871
[1], first compound 150 µg/mL	0.753	0.752	0.619
[2], first compound 18.75 µg/mL	0.792	0.738	0.749
[2], first compound 75 µg/mL	0.0486	0.0139	0.0176

Conditions	Bliss interaction score
[3]	0.116
[4]	-0.0511
[5]	0.0965
[6]	0.0191

CC[C@H](C)[C@H](N)C1=N[C@H](C(=O)N[C@@H](CC(C)C)C(=O)N[C@H](CCC(=O)O)C(=O)N[C@H](C(=O)N[C@H]2CCCCNC(=O)[C@H](CC(N)=O)NC(=O)[C@@H](CC(=O)O)NC(=O)[C@H](Cc3cnc[nH]3)NC(=O)[C@@H](Cc3ccccc3)NC(=O)[C@H]([C@@H](C)CC)NC(=O)[C@@H](CCCN)NC2=O)[C@@H](C)CC)CS1 [Bacitracin] + CN1C2=CC=CC=C2N=C3C1=CC=CC3=O [Pyocyanin]
fitness
Conditions	first compound 18.75 µg/mL	first compound 37.5 µg/mL	first compound 75 µg/mL	first compound 150 µg/mL
[1], partner 1.25 µg/mL	–	0.9	0.931	0.8
[1], partner 2.5 µg/mL	–	0.839	0.853	0.682
[1], partner 5 µg/mL	–	0.614	0.594	0.419
[2], partner 1.25 µg/mL	0.574	0.208	0.04	–
[2], partner 2.5 µg/mL	0.496	0.18	0.0276	–
[2], partner 5 µg/mL	0.281	0.148	0.0716	–

Conditions	Bliss interaction score
[3]	0.0566
[4]	0.0487
[5]	-0.0473
[6]	0.0748

CC[C@H](C)[C@H](N)C1=N[C@H](C(=O)N[C@@H](CC(C)C)C(=O)N[C@H](CCC(=O)O)C(=O)N[C@H](C(=O)N[C@H]2CCCCNC(=O)[C@H](CC(N)=O)NC(=O)[C@@H](CC(=O)O)NC(=O)[C@H](Cc3cnc[nH]3)NC(=O)[C@@H](Cc3ccccc3)NC(=O)[C@H]([C@@H](C)CC)NC(=O)[C@@H](CCCN)NC2=O)[C@@H](C)CC)CS1 [Bacitracin] + CN(C)c1cc(NC(=O)CNC(C)(C)C)c(O)c2c1C[C@H]1C[C@H]3[C@H](N(C)C)C(O)=C(C(N)=O)C(=O)[C@@]3(O)C(O)=C1C2=O [Tigecycline]
fitness
Conditions	partner 0.039 µg/mL	partner 0.078 µg/mL	partner 0.156 µg/mL
[1], first compound 37.5 µg/mL	0.997	0.946	0.867
[1], first compound 75 µg/mL	≥ 1	0.859	0.933
[2], first compound 18.75 µg/mL	0.705	0.707	0.724
[2], first compound 75 µg/mL	0.0511	0.058	0.0883

fitness, [1], one replicate
Conditions	first compound 37.5 µg/mL	first compound 75 µg/mL	first compound 150 µg/mL
partner 0.125 µg/mL	≥ 1	≥ 1	≥ 1
partner 0.25 µg/mL	0.907	0.892	0.855
partner 0.5 µg/mL	0.915	0.947	0.914

Conditions	Bliss interaction score
[3]	0.0848
[4]	0.0672
[5]	0.0592
[6]	0.0393

CC[C@H](C)[C@H](N)C1=N[C@H](C(=O)N[C@@H](CC(C)C)C(=O)N[C@H](CCC(=O)O)C(=O)N[C@H](C(=O)N[C@H]2CCCCNC(=O)[C@H](CC(N)=O)NC(=O)[C@@H](CC(=O)O)NC(=O)[C@H](Cc3cnc[nH]3)NC(=O)[C@@H](Cc3ccccc3)NC(=O)[C@H]([C@@H](C)CC)NC(=O)[C@@H](CCCN)NC2=O)[C@@H](C)CC)CS1 [Bacitracin] + CN(N=O)C(=O)N[C@@H](C=O)[C@@H](O)[C@H](O)[C@H](O)CO [Streptozotocin]
fitness
Conditions	partner 0.15 µg/mL	partner 0.3 µg/mL	partner 0.6 µg/mL
[1], first compound 37.5 µg/mL	0.913	0.856	0.906
[1], first compound 75 µg/mL	0.806	0.857	0.876
[2], first compound 18.75 µg/mL	0.59	0.526	0.245
[2], first compound 37.5 µg/mL	0.124	0.0706	0.0163
[2], first compound 75 µg/mL	0.0279	0.0183	0.0064

Conditions	Bliss interaction score
[3]	0.0453
[4]	-0.0625
[5]	-0.104
[6]	-0.0576

CC[C@H](C)[C@H](N)C1=N[C@H](C(=O)N[C@@H](CC(C)C)C(=O)N[C@H](CCC(=O)O)C(=O)N[C@H](C(=O)N[C@H]2CCCCNC(=O)[C@H](CC(N)=O)NC(=O)[C@@H](CC(=O)O)NC(=O)[C@H](Cc3cnc[nH]3)NC(=O)[C@@H](Cc3ccccc3)NC(=O)[C@H]([C@@H](C)CC)NC(=O)[C@@H](CCCN)NC2=O)[C@@H](C)CC)CS1 [Bacitracin] + CN[C@@H]1[C@H](O)[C@H](NC)[C@H]2O[C@@]3(O)C(=O)C[C@@H](C)O[C@H]3O[C@@H]2[C@H]1O [Spectinomycin]
fitness
Conditions	partner 2 µg/mL	partner 4 µg/mL	partner 8 µg/mL	partner 16 µg/mL
[1], first compound 37.5 µg/mL	0.903	0.933	0.863	–
[1], first compound 75 µg/mL	0.889	0.911	0.829	–
[2], first compound 18.75 µg/mL	–	0.652	–	–
[2], first compound 75 µg/mL	–	0.0188	0.0181	0

fitness, [2], one replicate
Conditions	first compound 18.75 µg/mL	first compound 37.5 µg/mL	first compound 75 µg/mL
partner 32 µg/mL	0.0067	0.0186	0
partner 64 µg/mL	0.0327	0.0167	0.003

Conditions	Bliss interaction score
[3]	0.0682
[4]	-0.186
[5]	-0.165
[6]	0.0546

CC[C@H](C)[C@H](N)C1=N[C@H](C(=O)N[C@@H](CC(C)C)C(=O)N[C@H](CCC(=O)O)C(=O)N[C@H](C(=O)N[C@H]2CCCCNC(=O)[C@H](CC(N)=O)NC(=O)[C@@H](CC(=O)O)NC(=O)[C@H](Cc3cnc[nH]3)NC(=O)[C@@H](Cc3ccccc3)NC(=O)[C@H]([C@@H](C)CC)NC(=O)[C@@H](CCCN)NC2=O)[C@@H](C)CC)CS1 [Bacitracin] + CN[C@@H]1[C@H](O[C@H]2[C@H](O[C@H]3[C@H](O)[C@@H](O)[C@H](N=C(N)N)[C@@H](O)[C@@H]3N=C(N)N)O[C@@H](C)[C@]2(O)C=O)O[C@@H](CO)[C@H](O)[C@H]1O [Streptomycin]
fitness
Conditions	first compound 18.75 µg/mL	first compound 37.5 µg/mL	first compound 75 µg/mL	first compound 150 µg/mL
[1], partner 2 µg/mL	–	0.908	0.807	–
[1], partner 8 µg/mL	–	0.0363	0.0188	0.0134
[2], partner 1 µg/mL	–	0.0508	0.0138	–
[2], partner 2 µg/mL	–	0.0177	0.0112	–
[2], partner 4 µg/mL	0.0347	0.0049	0.0045	–

Conditions	Bliss interaction score
[3]	-0.234
[4]	-0.146
[5]	-0.323
[6]	-0.0869

CC[C@H](C)[C@H](N)C1=N[C@H](C(=O)N[C@@H](CC(C)C)C(=O)N[C@H](CCC(=O)O)C(=O)N[C@H](C(=O)N[C@H]2CCCCNC(=O)[C@H](CC(N)=O)NC(=O)[C@@H](CC(=O)O)NC(=O)[C@H](Cc3cnc[nH]3)NC(=O)[C@@H](Cc3ccccc3)NC(=O)[C@H]([C@@H](C)CC)NC(=O)[C@@H](CCCN)NC2=O)[C@@H](C)CC)CS1 [Bacitracin] + CO/N=C(\C(=O)N[C@@H]1C(=O)N2C(C(=O)O)=C(COC(C)=O)CS[C@H]12)c1csc(N)n1 [Cefotaxime]
fitness, [1], one replicate
Conditions	partner 0.00775 µg/mL	partner 0.0155 µg/mL	partner 0.031 µg/mL	partner 0.0625 µg/mL	partner 0.125 µg/mL	partner 0.25 µg/mL
first compound 37.5 µg/mL	0.831	0.724	0.52	0.479	0.314	0.297
first compound 75 µg/mL	0.749	0.521	0.342	0.257	0.12	0.111
first compound 150 µg/mL	0.326	0.035	0	0.0561	0.0401	0.0433

fitness
Conditions	partner 0.078 µg/mL	partner 0.156 µg/mL	partner 0.312 µg/mL	partner 0.5 µg/mL	partner 0.625 µg/mL	partner 1 µg/mL	partner 1.25 µg/mL	partner 2 µg/mL	partner 2.5 µg/mL
[1], first compound 37.5 µg/mL	–	–	–	0.274	–	0.137	–	0.134	–
[1], first compound 75 µg/mL	–	–	–	0.202	–	0.0939	–	0.0639	–
[1], first compound 150 µg/mL	–	–	–	0.0854	–	0.0162	–	0.0303	–
[2], first compound 18.75 µg/mL	0.465	0.0868	0.0343	–	0.0178	–	0.0266	–	0.0285
[2], first compound 37.5 µg/mL	0.0257	0.0132	0.0259	–	0.0287	–	0.0203	–	0.0237
[2], first compound 75 µg/mL	0.0416	0.031	0.0324	–	0.0342	–	0.0412	–	0.0372

Conditions	Bliss interaction score
[3]	-0.1
[4]	-0.0668
[5]	-0.1
[6]	-0.0827

— the supplement of paper PMC10627819
